Legend:
Arabidopsis thaliana [1] = experiment: MOA1 gene expression profiling (22,000 gene array); conditions: for Regulated Genes: Down / Regulated Genes: Up: 1 hr, p < 0.5; for No. of Lethal Genes Altered: genes essential for plant growth and development
Arabidopsis thaliana [2] = experiment: MOA1 biochemical (metabolite) profiling by LC-MS and GC-MS
[3] = tested on: Arabidopsis thaliana plants; experiment: SOA1 phenotypic analysis of herbicide-treated Arabidopsis (MIC, Tmic, leaf traits); assay type: in vivo; conditions: for characteristic morphological symptoms: herbicide-treated Arabidopsis; for leafCurling Dev. / leafTwisting Dev. / leafWidth Dev. / matureLeafAnthocyanins Dev. / matureLeafChlorosis Dev. / matureLeafNecrosis Dev. / newLeafAnthocyanins Dev. / newLeafChlorosis Dev. / newLeafNecrosis Dev. / pointedLeaves Dev.: numeric value standardized to mock treated; for tMic Dev.: time to full range of symptoms at MIC, coded
[4] = tested on: N-starved Arabidopsis plants; conditions: nitrate addition to N-starved plants; cited from earlier work

SMILES | Number of Metabolites Changed: (unknown #) (Arabidopsis thaliana [2]; 20 min, p < 0.05) | Number of Metabolites Changed: Total # (Arabidopsis thaliana [2]; 20 min, p < 0.05) | Number of Metabolites Changed: (unknown #) (Arabidopsis thaliana [2]; 20 min, p < 0.11) | Number of Metabolites Changed: Total # (Arabidopsis thaliana [2]; 20 min, p < 0.11) | Number of Metabolites Changed: (unknown #) (Arabidopsis thaliana [2]; 1 hr, p < 0.05) | Number of Metabolites Changed: Total # (Arabidopsis thaliana [2]; 1 hr, p < 0.05) | Number of Metabolites Changed: (unknown #) (Arabidopsis thaliana [2]; 1 hr, p < 0.11) | Number of Metabolites Changed: Total # (Arabidopsis thaliana [2]; 1 hr, p < 0.11) | characteristic morphological symptoms [3] | leafCurling Dev. [3] | leafTwisting Dev. [3] | leafWidth Dev. [3] | matureLeafAnthocyanins Dev. [3] | matureLeafChlorosis Dev. [3] | matureLeafNecrosis Dev. [3] | newLeafAnthocyanins Dev. [3] | newLeafChlorosis Dev. [3] | newLeafNecrosis Dev. [3] | pointedLeaves Dev. [3] | tMic Dev. [3] | also measured
COC(=O)NS(=O)(=O)c1ccc(N)cc1 [Asulam] | 3 | 9 | 5 | 14 | 7 | 10 | 11 | 18 | – | – | – | – | – | – | – | – | – | – | – | – | Regulated Genes: Down (Arabidopsis thaliana [1]): 7; Regulated Genes: Up (Arabidopsis thaliana [1]): 80; No. of Lethal Genes Altered (Arabidopsis thaliana [1]): 5
COc1nc(C)nc(NC(=O)NS(=O)(=O)c2ccccc2Cl)n1 [Chlorsulfuron] | 4 | 9 | 6 | 15 | 3 | 5 | 13 | 23 | anthocyanin accumulation in the older leaves accompanied by chlorosis of the newly emerging leaves | 1 | 1 | −1 | 3 | 2 | 0 | 0 | 2 | 0 | 0 | 2 | Regulated Genes: Down (Arabidopsis thaliana [1]): 109; Regulated Genes: Up (Arabidopsis thaliana [1]): 97; No. of Lethal Genes Altered (Arabidopsis thaliana [1]): 8
O=[N+]([O-])O [Nitrate] | – | – | – | – | – | – | – | – | – | – | – | – | – | – | – | – | – | – | – | – | Nitrate Regulation of Glutamate synthetase [4]: ↑; Nitrate Regulation of Glutamine synthetase (2) [4]: ↑; Nitrate Regulation of MADs Box (2) [4]: ↓; Nitrate Regulation of MYB transcription factor [4]: ↑; Nitrate Regulation of Malate Dehydrogenase [4]: ↑; Nitrate Regulation of Nitrate transporter [4]: ↑; Nitrate Regulation of Phosphate transporter [4]: ↑; Nitrate Regulation of Transaldolase [4]: ↑; Nitrate Regulation of Transketolase [4]: ↑
O=C(O)c1ccccc1C(=O)Nc1cccc2ccccc12 [Naptalam] | 11 | 28 | 16 | 39 | 9 | 13 | 23 | 46 | – | – | – | – | – | – | – | – | – | – | – | – | Regulated Genes: Down (Arabidopsis thaliana [1]): 47; Regulated Genes: Up (Arabidopsis thaliana [1]): 50; No. of Lethal Genes Altered (Arabidopsis thaliana [1]): 3
CCc1cccc(C)c1N(C(=O)CCl)C(C)COC (stereo not drawn) [Metolachlor] | 25 | 38 | 34 | 54 | 11 | 18 | 22 | 45 | – | 2 | 1 | −1 | 0 | 0 | 3 | 0 | 0 | 3 | 1 | 2 | –
C[n+]1ccc(-c2cc[n+](C)cc2)cc1 [Paraquat] | 5 | 9 | 9 | 14 | 15 | 22 | 31 | 50 | rapid and widespread leaf necrosis | 2 | 0 | −1 | 0 | 1 | 4 | 0 | 1 | 4 | 1 | 2 | –
Nc1nc[nH]n1 [Amitrole] | 6 | 9 | 13 | 17 | 8 | 14 | 20 | 32 | leaf bleaching and leaf enlargement | −1 | 0 | 2 | 0 | 3 | 0 | 0 | 4 | 0 | 0 | 2 | –
CC(C)N1C(=O)c2ccccc2NS1(=O)=O [Bentazon] | 3 | 9 | 6 | 10 | 9 | 11 | 14 | 19 | rapid and widespread leaf necrosis | 2 | 0 | −2 | 0 | 2 | 4 | 0 | 2 | 4 | 1 | 1 | –
CCNc1nc(Cl)nc(NC(C)C)n1 [Atrazine] | 4 (4) | 4 (4) | 8 | 11 | 8 | 17 | 24 | 49 | rapid and widespread leaf necrosis | 1 | 0 | −1 | 0 | 1 | 4 | 0 | 1 | 4 | 1 | 1 | –

Source: US20030229451A1, “Methods and systems for analyzing complex biological systems” (priority 2001, published 2003)
